This note sets out measurements from US5849753A, “Pyridyl imidazole derivatives and processes for the preparation thereof” (Korea Research Institute of Chemical Technology, priority 1994, dated 1998).

Test [1] deals with renal hypertensive rat. Put plainly: Blood pressure lowering effect in renal hypertension (renal hypertensive rats, intravenous or oral). Type of test: in vivo, male Sprague-Dawley rats. The note with it: 3 mg, read-out: Maxium Blood Pressure Lowering Effect(%). An excerpt: (§1) To induce renal hypertension, left renal artery of 4 week-old male Sprague-Dawley rats(from The Korea Research Institute of Chemical Technology) was ligated. The rats were anesthetized with ether and the surgical region on the left abdomen of the rat was shaved, disinfected, and then incised about 1 cm vertically. The renal artery near abdominal aorta was isolated carefully from surrounding tissues and veins, and then ligated completely with a suture(4/0 sterile surgical silk). The muscular strata and skin of the surgical area were sutured with a suture(4/0 sterile surgical silk). The surgical region was disinfected to prevent infection and thereafter, 200 to 250 mg/Kg/day of cephazolin sodium was injected intramuscularly for 2 days. 6 to 8 days after the ligation, rats showing systolic pressure of more than 180 mmHg were selected for renal hypertension test. The blood pressure was determined by a tail-cuff method from the tail under unanesthetized condition(Gerold, M. et al., Arzneimittrel-Forsch, 18, 1285(1968)).
(§2) Each of the compounds to be tested was administered intravenously or orally into the renal hypertensive rat. The blood pressure of the rats was determined by direct method(Chiu, A. T. et al., J. Pharmacol. Exp. Ther. 250, 867(1989)) using a catheter. The rats were anesthetized with ketamine hydrochloride(125 mg/kg, i.p.) and a catheter was filled with saline and inserted into a carotid artery and carotid vein. The surgical area was sutured with a metal clip. The rats were relaxed at least 3 hours and the catheter in the carotid artery was adapted to an isotec pressure transducer to determine their blood pressure and heart rate with a physiograph(Linearcorder WR3310). After the blood pressure was stabilized, the test compound was administered intravenously or orally. For intravenous administration, the administered volume and washing volume were 1.0 ml/Kg and 0.2 ml, respectively. The blood pressure and heart rate were measured in regular intervals up to 24 hours after the administration of the test compound and compared with those measured after the administration of the control compound Losartan.
(§3) The test compound was dissolved in 0.05N KOH for intravenous administration and suspended in Tween 80 for oral administration.

For test [2], the system named is renal hypertensive rat. Kind of test: Blood pressure lowering effect on oral administration to rats at several doses. The class given is in vivo, male Sprague-Dawley rats.
From the text: as §1, §2, §3
(iii) Blood pressure lowering effect The present compounds, Losartan(Dup 753) and the Merck compound were administrated orally to rats in 10, 3, 1, 0.3 and 0.1 mg/kg under the same condition as in (ii) and the blood pressure lowering effect was determined.

The subject of test [3] is unanesthetized dogs. Put plainly: Blood pressure lowering effect in unanesthetized dogs (furosemide treated). Type of test: in vivo, dog. Set-up: Maximum blood pressure lowering effect in a dog: unit not given here. The note with it: oral; for Blood pressure variation with time: 3 mg. Here is the method:
A number of dogs were fed freely in a feeding room and those weighing 7 to 12 kg in good health were selected regardless of their gender.
The test dogs were anesthetized with 30 mg/kg of pentobarbital sodium by intravenous injection and the left femoral artery and femoral vein were separated carefully. Silicone catheter, specially prepared and filled with saline treated with heparin(1,000 IU/ml), was cannulated into the blood vessels. After the surgery, the dogs were constrained to measure their blood pressure continuously with Gould 2000 physiograph adapted to a Grass P23 XL pressure transducer; and their heart rates were monitored with ECG/Biotacho amplifier. The dogs were tested at least 2 days after the surgery.
10 mg/kg of furosemide was injected intramuscularly 18 hours(in case of intravenous injection, 2 hours) before the beginning of the test (administration of the test compound) to improve the activity of renin in blood plasma. After the injection of furosemide, neither food nor water was provided. The test compound was suspended in Tween 80 and administered in an amount of 20 mg/kg orally. The blood pressure and heart rate were measured up to 8 hours after the administration of each test compound.
The maximum blood pressure lowering effect of the present compounds and the control compounds were determined in different amounts of administration using the same method as […]

Test [4] relates to angiotensin II receptor. Put plainly: Angiotensin II Receptor Binding Assay ([3H] angiotensin II binding inhibition). The note with it: [3H] angiotensin II ligand; 60 minutes, 25° C.; test concentration not given. On the procedure:
In accordance with the procedure disclosed in Chiu, A. T. et al., Eur. J. Pharm., 157, 13(1981), a ligand marked with a radioisotope was reacted with an angiotensin II receptor and the reactant was filtered with a glass fiber to remove unreacted ligand. After washing the filter, the amount of the remaining isotope was measured to determine the binding activity of the ligand, as described below in detail.
Sprague-Dawley rats and Wistar rats of 250 to 350 g(from The Korea Research Institute of Chemical Technology) were tested and the test procedures were carried out at 4° C., unless otherwise specified. Adrenal gland was separated from the Sprague-Dawley rats(liver, in the case of Wistar rats) into cortex and medulla. The separated adrenal cortex and medulla were washed with a sucrose buffer solution (0.2M sucrose, 1 mM EDTA, 10 mM Tris, pH 7.2) and homogenized in the same buffer solution by using a Teflon pestle and a Brinkmann homogenizer. The homogenates were centrifuged at 3,000 Xg for 10 minutes to remove precipitates and further centrifuged at 12,000 Xg for 13 minutes. The final supernatants were centrifuged at 102,000 Xg for 1 hour to obtain precipitates, which were washed with a Tris buffer solution(50 mM Tris, 5 mM MgCl2, pH 7.2) and re-centrifuged at 102,000 Xg for 1 hour. The resulting precipitates were immediately processed at the following step or stored at -70° C.
The precipitates were suspended in a Tris buffer solution. The amount of protein was determined by using a Bio-Rad DC protein analyzing kit and the protein concentration was adjusted to the amounts of: 0.2 to 0.3 mg/ml(Sprague-Dawley rat: adrenal cortex), 1.5 to 2.0 mg/ml(Sprague-Dawleyrat: adrenal medulla), and 1.5 to 2.0 mg/ml(Wistar rat: liver). To the suspension, bovine serum albumin(BSA) was added to a concentration of 0.25 wt % and the resultant was immediately processed at the following step or stored at -70° C.
(ii) Measurement of angiotensin II receptor binding capacity 50 μl(based on ligand) of [^3 H] angiotensin II(NEN, NET-446) and 10 μl of each of the test compounds with various concentrations were added to the buffer solution(50 mM Irris(pH 7.2), 5 mM MgCl2, 0.25% BSA) to adjust the final volume to be 0.5 ml. 100 μl of the receptor suspension was added thereto and the resulting solution was reacted for 60 minutes while stirring in a water bath at 25° C. 3 ml of cold buffer solution for analysis was added to cease the reaction. The isotope which was bound to the receptor was isolated from the resultant by using Brandel Cell Harvester System with Whatman glass fiber GF/C. After washing the filter, the radioactivity of the filter was determined by using a liquid scintillation counter. Binding inhibition(%) of the test compound was calculated as follows:
Binding Inhibition(%)=[{(T--B)-(S--B)}/(T--B)]×100
wherein T is cpm of the reaction product untreated with the test compound, S is cpm of the reaction product treated with the test compound, and B is cpm of blank test.

As for `CCCCc1nc2cc(-c3ccccc3)c(C(OC)OC)nc2n1Cc1ccc(-c2ccccc2-c2nnn[nH]2)cc1` [Example 1, 2-butyl-5-dimethoxymethyl-6-phenyl-3-[2'-(1H-tetrazol-5-yl)biphenyl-4-ylmethyl]-3H-imidazo[4,5-b]pyridine], the change in vivo at 3 mg in test [1] was -40%. Also, the figures for the “blood pressure lowering effect” value in test [2] (1 mg/kg) and in test [2] (3 mg/kg) were 25% and 38%, respectively. In addition, the “Maximum blood pressure lowering effect in a dog” value in test [3] (1 mg/kg) is 15; in test [3] (3 mg/kg) it was 35; in test [3] (10 mg/kg), 41. For the same molecule, the “Blood pressure variation with time” value in test [3] (dogs, 0.5 hr) is -31.3%; in test [3] (dogs, 1 hr), -32.6%; in test [3] (dogs, 2 hr), -34.0%; in test [3] (dogs, 4 hr) it was -33.0%; in test [3] (dogs, 6 hr), -30.1%; in test [3] (dogs, 8 hr), -25.9%. For the same molecule, in test [4], the “Binding Inhibition(%)” value is listed as 77.8%.
As to `CCCCc1nc2cc(-c3ccccc3OC)c(C(OC)OC)nc2n1Cc1ccc(-c2ccccc2-c2nn[nH]n2)cc1` [Example 20, 2-butyl-5-dimethoxymethyl-6-(2-methoxyphenyl-1-yl)-3-[2'-(1H-tetrazol-5-yl)-biphenyl-4-ylmethyl]-3H-imidazo[4,5-b]pyridine], the change in vivo at 3 mg in test [1] was -25%. Moreover, in test [4], the “Binding Inhibition(%)” value was determined as 81.9%.
For `CCCCc1nc2cc(-c3cccc[n+]3[O-])c(C(OC)OC)nc2n1Cc1ccc(-c2ccccc2-c2nn[nH]n2)cc1` [Example 21, 2-butyl-5-dimethoxymethyl-6-(1-oxy-pyridin-2-yl)-3-[2'-(1H-tetrazol-5-yl)-biphenyl-4-ylmethyl]-3H-imidazo[4,5-b]pyridine] the same measures were -20% and 92.2%.
The corresponding values for `CCCCc1nc2cc(-c3cccnc3)c(C(OC)OC)nc2n1Cc1ccc(-c2ccccc2-c2nnn[nH]2)cc1` [Example 22, 2-butyl-5-dimethoxymethyl-6-(pyridin-3-yl)-3-[2'-(1H-tetrazol-5-yl)-biphenyl-4-ylmethyl]-3H-imidazo[4,5-b]pyridine] are -38% and 94.8%.
Take `CCCCc1nc2cc(-c3ccncc3)c(C(OC)OC)nc2n1Cc1ccc(-c2ccccc2-c2nnn[nH]2)cc1` [Example 23, 2-butyl-5-dimethoxymethyl-6-(pyridin-4-yl)-3-[2'-(1H-tetrazol-5-yl)-biphenyl-4-ylmethyl]-3H-imidazo[4,5-b]pyridine]: in test [1], the change in vivo at 3 mg was -33%. Also, in test [4], the “Binding Inhibition(%)” value was determined as 92.9%.
As to `CCCCc1nc2cc(-c3ccc[n+]([O-])c3)c(C(OC)OC)nc2n1Cc1ccc(-c2ccccc2-c2nn[nH]n2)cc1` [Example 24, 2-butyl-5-dimethoxymethyl-6-(1-oxy-pyridin-3-yl)-3-[2'-(1H-tetrazol-5-yl)-biphenyl-4-ylmethyl]-3H-imidazo[4,5-b]pyridine], the change in vivo at 3 mg in test [1] is -18%. Further, the “Binding Inhibition(%)” value in test [4] is listed as 94.9%.
In the case of `CCCCc1nc2cc(-c3cc[n+]([O-])cc3)c(C(OC)OC)nc2n1Cc1ccc(-c2ccccc2-c2nn[nH]n2)cc1` [Example 25, 2-butyl-5-dimethoxymethyl-6-(1-oxy-pyridin-4-yl)-3-[2'-(1H-tetrazol-5-yl)-biphenyl-4-ylmethyl)-3H-imidazo[4,5-b]pyridine], in test [1], the change in vivo at 3 mg was -29%. In test [4], the “Binding Inhibition(%)” value is 97.0%.
Take `CCCCc1nc(Cl)c(CO)n1Cc1ccc(-c2ccccc2-c2nn[nH]n2)cc1` [Losartan(Dup 753), Losartan, reference compound]: in test [1], the change in vivo at 3 mg is -30%. Besides, the “blood pressure lowering effect” value came out at 30% in test [2] (3 mg/kg) and 46% in test [2] (10 mg/kg). For the same molecule, the results for the “Maximum blood pressure lowering effect in a dog” value in test [3] (3 mg/kg) and in test [3] (10 mg/kg) were 13 and 23, respectively. The “Blood pressure variation with time” value in test [3] (dogs, 0.5 hr) is -11.0%; in test [3] (dogs, 1 hr), -12.3%; in test [3] (dogs, 2 hr) it was -12.8%; in test [3] (dogs, 4 hr) it was -9.9%; in test [3] (dogs, 6 hr) it was -10.1%; in test [3] (dogs, 8 hr), -8.2%. The “maximum blood pressure lowering effect lasted up to (after the administration)” value in test [3] (dogs, as shown in Table 3) was “up to 2 hours”. Further, the “Binding Inhibition(%)” value in test [4] came out at 48.0%.
